Our source for the IC50 values is BindingDB's records for doi:10.1016/S0960-894X(01)80152-9 (1994).

What is called IC50 is the concentration that gives 50% inhibition.

Test [1] has as its target Arachidonate 5-lipoxygenase (Cavia porcellus). Put plainly: In vitro 5-lipoxygenase inhibition in guinea pig PMNs was determined based on LTB4 production.
Test [2] shares this target. Put plainly: In vitro 5-lipoxygenase inhibition in guinea pig PMNs was determined based on 5-hydroxyeicosapentaenoic acid (5-HETE) production.

On to `NC(=O)N(O)CC1=Cc2ccc(Oc3ccccc3)cc2OCC1` [N-hydroxy-N-[(8-phenoxy-2,3-dihydro-1-benzoxepin-4-yl)methyl]urea], for which the results for the concentration for half-maximal inhibition (IC50) in test [1] and in test [2] were 210 nM and 180 nM, respectively.

As for `NC(=O)N(O)CC1=Cc2cc(Oc3ccccc3)ccc2OCC1` [N-hydroxy-N-[(7-phenoxy-2,3-dihydro-1-benzoxepin-4-yl)methyl]urea], the results for the IC50 in test [1] and in test [2] were 91 nM and 89 nM, respectively.

As to `CNC(=O)N(O)CC1=Cc2cc(Oc3ccc(F)cc3)ccc2OCC1` [N-{[7-(4-fluorophenoxy)-2,3-dihydro-1-benzoxepin-4-yl]methyl}-N-hydroxy-N'-methylurea], the IC50 came out at 130 nM in test [1] and 100 nM in test [2].

As for `NC(=O)N(O)CC1=Cc2cc(Oc3ccccc3)ccc2SCC1` [N-hydroxy-N-[(7-phenoxy-2,3-dihydro-1-benzothiepin-4-yl)methyl]urea], the 50% inhibitory concentration (IC50) in test [1] stood at 130 nM; in test [2], 120 nM.

Consider `NC(=O)N(O)CC1=Cc2cc(Oc3ccc(F)cc3)ccc2OCC1` [N-{[7-(4-fluorophenoxy)-2,3-dihydro-1-benzoxepin-4-yl]methyl}-N-hydroxyurea], for which the IC50 amounted to 98 nM in test [1] and 91 nM in test [2].
